We go through two compounds from publication PMC6003569, “Novel fluorinated carbonic anhydrase IX inhibitors reduce hypoxia-induced acidification and clonogenic survival of cancer cells” (Oncotarget, 2018).

One assay relates to MDA-MB-231 cells. Put plainly: alamarBlue cell viability assay. Format: cell-based. Particulars: Homo sapiens, MDA-MB-231, 72 h.
The subject of assay [1] is AsPC-1 cells. The experiment in a line: alamarBlue cell viability assay. It is filed as cell-based. Conditions: Homo sapiens, ASPC1, 48 h. In general terms: Alamar Blue is a resazurin reagent that responds to reducing activity.
Method: (§3) Cytotoxicity of inhibitors was determined by the alamarBlue® cell viability assay (Life Technologies). […] Briefly, cells were seeded in 96-well plates and allowed to attach overnight in normoxia. […] After 72 h, cells were incubated with 10% alamarBlue® for 2 h under normoxia at 37° C. The fluorescence signal was measured using the multi-mode microplate reader (FLUOstar® Omega, BMG Labtech) at 580 nm (excitation wavelength 540 nm). Response to treatments was quantified by evaluating EC50 values (concentration of inhibitor that leads to half-maximum viability response determined by Hill fit).
In assay [2] the test system is HeLa cells. Put plainly: alamarBlue cell viability assay. Format: cell-based, human. Conditions: Homo sapiens, HeLa, 72 h, HeLa.
Method: as §3
For assay [3], the system named is HeLa cells. Put plainly: Extracellular acidification (pH) assay. Format: cell-based, human. Conditions: for hypoxia-induced extracellular acidification: hypoxia 0.2% O2, 72 h, 5–50 μM; for effect on extracellular acidification under normoxia: normoxia 21% O2, 72 h.
Assay [4] relates to CA activity in hypoxic HeLa CA IX KO cells. The experiment in a line: CA catalytic activity via MS gas-analysis, CA IX knockout cells. It is filed as cell-based, human. Conditions: both HeLa CA IX KO lines.
Method: The reaction sequence of ^18O loss from ^13C^18O^18O (m/z = 49) over the intermediate product ^13C^18O^16O (m/z = 47) and the end product ^13C^16O^16O (m/z = 45) was monitored with a quadrupole mass spectrometer (OmniStar GSD 320; Pfeiffer Vacuum, Asslar, Germany). The relative ^18O enrichment was calculated from the measured 45, 47, and 49 m/z abundance as a function of time according to: log enrichment = log (49×100/(49+47+45)). For the calculation of CA activity, the rate of ^18O depletion was obtained from the linear slope of the log enrichment over the time, using OriginPro 8.6 (OriginLab Corporation). The rate was compared with the corresponding rate of the non-catalyzed reaction. Enzyme activity in units (U) was calculated from these two values as defined by Badger and Price [59]. […] For every measurement, the non-catalyzed reaction was determined for 6 min in the presence of inhibitor, before cell suspension was added to the measuring cuvette and the catalyzed reaction was determined for 8 min. […] IC50 values were determined by Hill equation using OriginPro 8.6. To investigate specificity of the inhibitors in HeLa WT and HeLa CA IX KO cells, the non-catalyzed reaction was determined for 6 min in the absence of inhibitor, before a suspension of 5 × 10^6 cells was added to the measuring cuvette. […]
For another assay, the target named is T1, CA XIII (Homo sapiens, UniProt Q8N1Q1).
T1 construct: 12 recombinant catalytic domains of human active CA isoforms as determined by FTSA
The experiment in a line: Fluorescent thermal shift assay (FTSA). It is filed as binding. Conditions: pH 7.0, 37° C. As to the method: (§1) The binding affinity of synthesized compounds to recombinant human CAs was measured by the fluorescent thermal shift assay (FTSA) where the thermal stabilization of the protein by the compound was determined by following the fluorescence dependence on temperature at various added compound concentrations. The melting temperature (Tm) of CA was measured using the Corbett Rotor-Gene 6000 instrument (QIAGEN Rotor-Gene Q, excitation at 365 ± 20 nm, emission detection at 460 ± 15 nm). The protein was heated from 25 to 99° C at a rate of 1° C/min and the fluorescence change of the solvatochromic dye 8-anilino-1-naphthalene sulfonate (ANS) was followed. The samples consisted of 5–10 μM CA, 0–200 μM ligand, 50 μM ANS, and 50 mM sodium phosphate buffer containing 100 mM NaCl at pH 7.0, with the final DMSO concentration of 2% (v/v). Protein unfolding profiles and the melting temperatures were determined at each ligand concentration while recording extrinsic fluorescence of ANS. Data analysis was performed as previously described. All experiments were repeated at least twice.

A further assay addresses T2, CA VB (Homo sapiens, UniProt Q9Y2D0).
T2 construct: 12 recombinant catalytic domains of human active CA isoforms as determined by FTSA
The experiment in a line: Fluorescent thermal shift assay (FTSA). It is filed as binding. Conditions: pH 7.0, 37° C. As to the method: as §1

A further assay addresses T3, CA II (Homo sapiens, UniProt P00918).
T3 construct: 12 recombinant catalytic domains of human active CA isoforms as determined by FTSA
The experiment in a line: Fluorescent thermal shift assay (FTSA). Format: binding. Particulars: pH 7.0, 37° C. As to the method: as §1

Assay [5] addresses T4, CA IX (Homo sapiens, UniProt Q16790).
T4 construct: 12 recombinant catalytic domains of human active CA isoforms as determined by FTSA
Put plainly: Fluorescent thermal shift assay (FTSA). It is filed as binding. Particulars: pH 7.0, 37° C. As to the method:
as §1

Another assay deals with T5, CA VI (Homo sapiens, UniProt P23280).
T5 construct: 12 recombinant catalytic domains of human active CA isoforms as determined by FTSA
Put plainly: Fluorescent thermal shift assay (FTSA). Format: binding. Conditions: pH 7.0, 37° C. As for the experimental part:
as §1

The target of a further assay is T6, CA I (Homo sapiens, UniProt P00915).
T6 construct: 12 recombinant catalytic domains of human active CA isoforms as determined by FTSA
Put plainly: Fluorescent thermal shift assay (FTSA). Particulars: pH 7.0, 37° C. It is filed as binding. As to the method:
as §1

The target of another assay is T7, CA VII (Homo sapiens, UniProt P43166).
T7 construct: 12 recombinant catalytic domains of human active CA isoforms as determined by FTSA
The experiment in a line: Fluorescent thermal shift assay (FTSA). Format: binding. Conditions: pH 7.0, 37° C. As for the experimental part: as §1

A further assay has as its target T8, CA IV (Homo sapiens, UniProt P22748).
T8 construct: 12 recombinant catalytic domains of human active CA isoforms as determined by FTSA
The experiment in a line: Fluorescent thermal shift assay (FTSA). It is filed as binding. Conditions: pH 7.0, 37° C. As to the method: as §1

The next assay addresses T9, CA XIV (Homo sapiens, UniProt Q9ULX7).
T9 construct: 12 recombinant catalytic domains of human active CA isoforms as determined by FTSA
The experiment in a line: Fluorescent thermal shift assay (FTSA). Format: binding. Particulars: pH 7.0, 37° C. As to the method:
as §1

In the next assay the target is T10, CA III (Homo sapiens, UniProt P07451).
T10 construct: 12 recombinant catalytic domains of human active CA isoforms as determined by FTSA
The experiment in a line: Fluorescent thermal shift assay (FTSA). Format: binding. Particulars: pH 7.0, 37° C. As for the experimental part: as §1

The target of assay [6] is T11, CA XII (Homo sapiens, UniProt O43570).
T11 construct: 12 recombinant catalytic domains of human active CA isoforms as determined by FTSA
The experiment in a line: Fluorescent thermal shift assay (FTSA). It is filed as binding. Conditions: pH 7.0, 37° C. As to the method:
as §1

The target in another assay is T12, CA VA (Homo sapiens, UniProt P35218).
T12 construct: 12 recombinant catalytic domains of human active CA isoforms as determined by FTSA
Put plainly: Fluorescent thermal shift assay (FTSA). Particulars: pH 7.0, 37° C. It is filed as binding. As to the method: as §1

The subject of assay [7] is AsPC-1 cells. Put plainly: Extracellular acidification (pH) assay. It is filed as cell-based, human. Particulars: AsPC-1, hypoxia 0.2% O2, 72 h.
For assay [8], the system named is 4 investigated cell lines. The experiment in a line: Extracellular acidification (pH) assay, cell line panel. It is filed as cell-based, human. Conditions: 50 μM, hypoxia 0.2% O2, 72 h. As to the method:
HeLa, H460, MDA-MB-231, and AsPC-1 cells were cultured in DMEM (Lonza) supplemented with 10% FBS (Lonza), whereas A549 cells were grown in-house made analogous medium differing only by a lower amount of sodium bicarbonate (final concentration 10 mM). Cell densities for each cell line were optimized to get ~100% confluence at the end of experiment under normoxic and hypoxic (0.2% O2) conditions upon vehicle (0.05% DMSO) treatment. Such conditions were necessary to obtain the highest possible level of CA IX-dependent extracellular acidification. Cells were plated in 6 cm dishes and allowed to attach overnight in normoxia. […] Results are shown as a difference between the pH of medium in the control plate (without seeded cells) and the pH of medium in the targeted plate (cells exposed to the compound or vehicle).

The test system of another assay is H460 spheroids. Put plainly: Clonogenic cell survival assay, 3D spheroids. Format: cell-based, human. Particulars: non-hypoxic (day 4) versus hypoxic (day 11) H460 spheroids, 5–15 μM, 24 h. As to the method: Clonogenic survival of HeLa cell monolayers was evaluated using cell densities applied in the extracellular acidification assay to determine the effect of inhibitors on the clonogenic cell survival while having the same acidification conditions. […] Then cells were trypsinized, reseeded in triplicate with known cell densities and allowed to form colonies for 14 days. […] Single cell suspensions were prepared and cells were plated in triplicate with known cell densities and allowed to form colonies for 14 days. […] Surviving fraction was normalized to vehicle (DMSO). To prepare plates for the growth of attachment-free H460 spheroids, autoclaved 1.5% w/v agarose (Sigma-Aldrich) was dispensed in the inner 60 wells of 96-well plates (50 μL/well) and left for polymerization at room temperature for 30 min. H460 cells were plated in modified 96-well plates to the surface of agarose menisci with a density of 500 cells/well. The DMEM was refreshed every two days. After 7 or 11 days in culture, spheroids were incubated with 20 μg/mL pimonidazole (PIMO, Hypoxyprobe-1, HP-1000, BioConnect) for 2 h at 37° C, collected and cryoconserved for immunofluorescence analysis (see below).

For the next assay, the system named is H460 cells. Put plainly: alamarBlue cell viability assay. Format: cell-based. Particulars: Homo sapiens, NCI-H460, 72 h.
A further assay deals with A549 cells. The experiment in a line: alamarBlue cell viability assay. Format: cell-based. Particulars: Homo sapiens, A549, 72 h.
In assay [9] the target is T4, CA IX. Put plainly: Stopped-flow CO2 hydration inhibition assay (SFA). It is filed as biochemical. Particulars: pH 7.5, 25° C, value in parentheses. As for the experimental part:
(§2) The enzymatic activity of carbonic anhydrase isoforms and their inhibition was determined by the stopped-flow CO2 hydration assay where the formed acid was followed by the absorbance change of a pH indicator. The Applied Photophysics SX.18MV-R stopped-flow spectrometer was used to measure the absorbance change of Phenol-Red pH indicator at 557 nm. Saturated CO2 solution was prepared by bubbling the CO2 gas in MilliQ water at 25° C for 1 h. Experiments were performed at 25° C using 25 mM Hepes buffer containing 50 mM NaCl (pH 7.5), 0–10 μM compound with the final 0.4% (v/v) DMSO concentration. The final enzyme concentration was 10 nM for CA IX and 20 nM for CA XII. Raw curves of absorbance change were analyzed using Origin 8.1 (OriginLab Corporation) and the slope values were used to evaluate the rates of CO2 hydration. Spontaneous CO2 hydration rate was used as a zero value, while the CA catalyzed reaction rate - as a maximum value.

The target in assay [10] is T11, CA XII. Put plainly: Stopped-flow CO2 hydration inhibition assay (SFA). It is filed as biochemical. Particulars: pH 7.5, 25° C, value in parentheses. As to the method:
as §2

Read-outs that look alike come from different tables or passages of the source. Some results are limits rather than exact numbers.

T11 sequence (O43570 30-289 limits assumed): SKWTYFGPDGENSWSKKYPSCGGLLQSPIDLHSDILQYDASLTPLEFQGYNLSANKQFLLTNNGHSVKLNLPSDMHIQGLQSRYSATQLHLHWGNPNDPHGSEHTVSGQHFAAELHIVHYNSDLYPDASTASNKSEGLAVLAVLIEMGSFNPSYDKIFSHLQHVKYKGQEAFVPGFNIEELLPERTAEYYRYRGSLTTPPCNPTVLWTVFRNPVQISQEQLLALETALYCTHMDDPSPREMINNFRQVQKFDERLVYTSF
T6 sequence (P00915 4-261 limits assumed): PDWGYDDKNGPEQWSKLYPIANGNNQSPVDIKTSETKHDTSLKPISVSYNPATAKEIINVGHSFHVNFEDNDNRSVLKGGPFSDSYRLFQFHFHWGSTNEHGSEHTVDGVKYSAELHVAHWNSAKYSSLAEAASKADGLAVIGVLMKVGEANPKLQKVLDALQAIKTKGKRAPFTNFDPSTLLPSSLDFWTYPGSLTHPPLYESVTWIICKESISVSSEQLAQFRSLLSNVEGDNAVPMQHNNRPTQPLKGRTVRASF
T5 sequence (P23280 21-278 limits assumed): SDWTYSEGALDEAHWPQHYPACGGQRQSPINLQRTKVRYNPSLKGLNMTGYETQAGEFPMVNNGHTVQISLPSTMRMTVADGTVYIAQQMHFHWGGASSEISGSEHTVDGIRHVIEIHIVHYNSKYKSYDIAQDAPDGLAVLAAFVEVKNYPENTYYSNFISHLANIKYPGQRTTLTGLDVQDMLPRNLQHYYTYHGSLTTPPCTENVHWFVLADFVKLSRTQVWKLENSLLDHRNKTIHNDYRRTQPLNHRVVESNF
T1 sequence (Q8N1Q1 4-261 limits assumed): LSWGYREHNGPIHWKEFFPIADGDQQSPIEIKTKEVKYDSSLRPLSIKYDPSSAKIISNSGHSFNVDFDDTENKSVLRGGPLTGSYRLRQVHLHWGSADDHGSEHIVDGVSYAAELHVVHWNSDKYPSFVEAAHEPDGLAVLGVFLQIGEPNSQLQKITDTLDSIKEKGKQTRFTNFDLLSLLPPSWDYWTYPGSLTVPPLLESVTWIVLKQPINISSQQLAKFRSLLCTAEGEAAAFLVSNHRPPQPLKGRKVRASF
T7 sequence (P43166 5-262 limits assumed): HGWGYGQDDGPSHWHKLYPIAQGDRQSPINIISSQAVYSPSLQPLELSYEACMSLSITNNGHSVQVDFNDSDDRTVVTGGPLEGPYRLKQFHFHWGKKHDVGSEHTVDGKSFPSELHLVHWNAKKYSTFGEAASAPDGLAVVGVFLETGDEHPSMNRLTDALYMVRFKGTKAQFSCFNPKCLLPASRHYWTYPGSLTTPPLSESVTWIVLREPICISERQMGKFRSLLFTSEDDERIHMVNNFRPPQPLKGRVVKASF
T10 sequence (P07451 3-259 limits assumed): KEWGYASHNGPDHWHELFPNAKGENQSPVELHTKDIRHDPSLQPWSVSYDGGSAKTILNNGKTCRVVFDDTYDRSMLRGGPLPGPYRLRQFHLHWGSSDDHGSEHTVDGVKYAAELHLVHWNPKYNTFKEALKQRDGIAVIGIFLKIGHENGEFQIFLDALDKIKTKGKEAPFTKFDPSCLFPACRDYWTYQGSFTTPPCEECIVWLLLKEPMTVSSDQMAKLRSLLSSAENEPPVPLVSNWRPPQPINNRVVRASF
T2 sequence (Q9Y2D0 37-296 limits assumed): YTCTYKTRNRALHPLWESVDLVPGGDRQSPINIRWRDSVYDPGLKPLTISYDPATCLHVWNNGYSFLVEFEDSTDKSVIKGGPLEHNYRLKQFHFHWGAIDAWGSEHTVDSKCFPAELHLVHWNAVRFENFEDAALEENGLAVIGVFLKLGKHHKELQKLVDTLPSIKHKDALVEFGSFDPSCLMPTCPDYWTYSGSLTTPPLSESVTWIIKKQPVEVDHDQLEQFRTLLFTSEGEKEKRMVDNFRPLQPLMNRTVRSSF
T9 sequence (Q9ULX7 20-278 limits assumed): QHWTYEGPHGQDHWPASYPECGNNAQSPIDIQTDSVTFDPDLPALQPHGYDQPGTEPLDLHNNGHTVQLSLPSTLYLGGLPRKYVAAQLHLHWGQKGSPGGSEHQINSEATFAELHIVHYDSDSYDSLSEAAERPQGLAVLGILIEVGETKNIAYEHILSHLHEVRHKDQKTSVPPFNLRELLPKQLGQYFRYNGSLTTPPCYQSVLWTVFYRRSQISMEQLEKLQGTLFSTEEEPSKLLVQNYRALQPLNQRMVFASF
T12 sequence (P35218 39-296 limits assumed): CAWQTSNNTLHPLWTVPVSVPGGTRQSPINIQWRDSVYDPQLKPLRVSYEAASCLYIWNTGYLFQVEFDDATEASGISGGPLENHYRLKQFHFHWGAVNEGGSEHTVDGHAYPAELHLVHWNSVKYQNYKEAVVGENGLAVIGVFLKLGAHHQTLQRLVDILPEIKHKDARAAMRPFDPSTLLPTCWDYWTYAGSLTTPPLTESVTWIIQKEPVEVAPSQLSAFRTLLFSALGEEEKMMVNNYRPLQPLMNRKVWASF
T8 sequence (P22748 21-285 limits assumed): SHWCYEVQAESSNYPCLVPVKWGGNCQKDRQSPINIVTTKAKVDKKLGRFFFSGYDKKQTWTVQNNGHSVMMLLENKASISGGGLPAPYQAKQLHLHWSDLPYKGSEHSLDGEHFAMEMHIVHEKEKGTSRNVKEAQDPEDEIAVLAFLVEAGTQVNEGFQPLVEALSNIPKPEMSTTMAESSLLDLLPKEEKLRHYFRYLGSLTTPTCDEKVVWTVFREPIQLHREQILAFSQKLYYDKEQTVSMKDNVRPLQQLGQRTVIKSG
Method for A549 cells: as §3
Method for H460 cells: as §3
Method for MDA-MB-231 cells: as §3

With `NS(=O)(=O)c1c(F)c(F)c(SCCc2ccc(C(=O)O)cc2)c(F)c1NC1CCCCCCCCCCC1` [VR16-09, 4-(2-{[4-(Aminosulfonyl)-3-(cyclododecylamino)-2,5,6-tetrafluorophenyl]thio}ethyl)benzoic acid], the EC50 (usually the concentration at which the effect is half-maximal) is 84.2 ± 4.9 µM with MDA-MB-231 cells (MDA-MB-231, 0.2% O2 (hypoxia), read-out: EC50); 74.2 ± 3.8 µM with MDA-MB-231 cells (MDA-MB-231, 21% O2 (normoxia), read-out: EC50); 160 ± 17 µM in the assay on AsPC-1 cells [1] (AsPC-1, 0.2% O2 (hypoxia), read-out: EC50); 153 ± 23 µM with AsPC-1 cells [1] (AsPC-1, 21% O2 (normoxia), read-out: EC50); 40.8 ± 9.6 µM in the assay on HeLa cells [2] (0.2% O2 (hypoxia), read-out: EC50); 20.2 ± 4.3 µM in the assay on HeLa cells [2] (21% O2 (normoxia), read-out: EC50). Further, the half-maximal effective concentration (EC50) with H460 cells (H460, 0.2% O2 (hypoxia), read-out: EC50) worked out at 40 ± 9.6 µM; in the assay with H460 cells (H460, 21% O2 (normoxia), read-out: EC50), 19.3 ± 3.6 µM; in the assay on A549 cells (A549, 0.2% O2 (hypoxia), read-out: EC50), 76.7 ± 2.9 µM; in the assay with A549 cells (A549, 21% O2 (normoxia), read-out: EC50), 17 ± 1 µM. Besides, the hypoxia-induced extracellular acidification entry in the assay on HeLa cells [3] is “significantly (p < 0.05) reduced”. Moreover, the “effect on extracellular acidification under normoxia” value in the assay with HeLa cells [3] is “negligible”. Besides, the “CA activity after addition of inhibitor” value in assay [4] (300 nM) is reported as “did not alter CA activity”. Also, the dissociation constant (Kd) (usually a measure of binding affinity in units of concentration) was 0.02 µM at CA XIII; 45 µM at CA VB; ≥ 200 µM on CA II; 0.00016 µM at CA IX [5]; ≥ 200 µM on CA VI; ≥ 200 µM on CA I. For the same compound, the Kd is 37 µM on CA VII; ≥ 200 µM on CA IV; 0.17 µM on CA XIV; ≥ 200 µM at CA III; 0.71 µM on CA XII [6]; ≥ 200 µM on CA VA. The hypoxia-induced acidosis entry was “increased” with AsPC-1 cells [7] and “significantly reduced” in [8]. Moreover, the “clonogenic survival of cells derived from spheroids” value in the assay on H460 spheroids is “hypoxia-dependent effect on clonogenic survival”. Also, the inhibitory constant (Ki) (commonly a dissociation constant, usually derived from enzyme kinetics or from competition with a known ligand) at CA IX [9] was < 0.001 µM; at CA XII [10], 0.1 µM.
Take `NS(=O)(=O)c1c(F)c(F)c(SCCO)c(F)c1NC1CCCCCCC1` [VD12-09]: the EC50 with MDA-MB-231 cells (MDA-MB-231, 0.2% O2 (hypoxia)) amounted to 67.6 ± 7.1 µM; in the assay on MDA-MB-231 cells (MDA-MB-231, 21% O2 (normoxia)) it was 55.4 ± 6.6 µM; in the assay with AsPC-1 cells [1] (AsPC-1, 0.2% O2 (hypoxia)), 83.3 ± 5.8 µM; in the assay with AsPC-1 cells [1] (AsPC-1, 21% O2 (normoxia)) it was 100 ± 20 µM; with HeLa cells [2] (0.2% O2 (hypoxia)) it was 46.9 ± 7 µM; with HeLa cells [2] (21% O2 (normoxia)) it was 21.6 ± 4.1 µM. Further, the 50% effective concentration (EC50) worked out at 37 ± 7.6 µM in the assay on H460 cells (H460, 0.2% O2 (hypoxia)); 17.8 ± 2.2 µM in the assay on H460 cells (H460, 21% O2 (normoxia)); 98.8 ± 8.5 µM in the assay with A549 cells (A549, 0.2% O2 (hypoxia)); 33.8 ± 2.5 µM in the assay with A549 cells (A549, 21% O2 (normoxia)). In addition, the hypoxia-induced extracellular acidification entry in the assay with HeLa cells [3] is recorded as “significantly (p < 0.05) reduced”. In addition, in the assay with HeLa cells [3], the “effect on extracellular acidification under normoxia” value is recorded as “negligible”. Besides, the “CA activity after addition of inhibitor” value in assay [4] (30 μM) is listed as “did not alter CA activity”.
